Laboratory results taken from patent publication US20210371459A1, “DIMERIC PEPTIDE INHIBITORS OF APOPTOSIS PROTEINS” (Hepagene Therapeutics (HK) Limited, priority 2017, published 2021).

Assays:
Conditions in all cases: FP, probe AbuRPFK-5FAM, 60 min at 25° C.
cIAP2-BIR3 = biological target: T1, cIAP2-BIR3 (Homo sapiens, UniProt Q13489); assay: cIAP2-BIR3 fluorescence polarization binding assay
T1 construct: cIAP2-BIR3; Reaction Biology; APT-11-372; purchased Reaction Biology APT-11-372
Text: (§1) IAPs are one main cause of cancer development and may result from overexpression of anti-apoptotic proteins. This protocol establishes three binding assays for XIAP Bir3 domain, cIAP1 and cIAP2 using FP (Fluorescence polarization) technology. The fluorescence probe used is a synthetic peptide conjugated to 5-carboxyfluorescein (AbuRPFK-5FAM). The fluorescence polarization value (mP) was detected by Envision, which was used to reflect the binding degree of protein and fluorescent marker. Reagents and equipment used in the assay are listed below, followed by the protocol.
(§2) • a) Prepare 100 times of the final cpd concentration in appropriate tube and transfer 5 uL compound (“cpd”) to 45 μL 1× reaction buffer with 10% DMSO. • b) The final reference cpd concentration is 10000, 3333.3, 1111.1, 370.4, 123.4, 41.2, 13.7, 4.57, 1.52, 0.51, 0.17 and 0 nM. So the 100 times of the concentration is 1000, 333.3, 111.1, 37.04, 12.34, 4.12, […], 0.15, 0.05, 0.017 and 0 μM. The final test cpds concentration is 3333.3, 1111.1, 370.4, 123.4, 41.2, 13.7, 4.57, 1.52, 0.51, 0.17, 0.057 and 0 nM. So the 100 times of the concentration is 333.3, 111.1, 37.04, 12.34, 4.12, […], 0.15, 0.05, 0.017, 0.0057 and 0 μM • c) Add 8 μL/well each dose enzyme to 384 well microplate (ProxiPlate-384 F Plus, 6008260) using multichannel pipette, prepared in step 2.1.1.2 • d) Centrifuge at 1000 rpm. • e) Add 2 μL/well cpd to 384 well microplate (ProxiPlate-384 F Plus, 6008260) using multichannel pipette, prepared in step a). • f) Centrifuge at 1000 rpm. RT, 15 min. • g) Start the assay by adding 10 uL/well substrate (prepared in step 2.1.1.3) to the same 384 well microplate using multichannel pipette • h) Centrifuge at 1000 rpm. • i) Cover the assay plate and incubate for 60 min at 25° C. • j) Read on Envision 2104 for mP and plot the IC50s with mP values. • k) Data analysis: IC50s were determined based on a non-linear regression analysis of data collected.

cIAP1-BIR3 = biological target: T2, cIAP1-BIR3 (Homo sapiens, UniProt Q13490); assay: cIAP1-BIR3 fluorescence polarization binding assay
T2 construct: cIAP1-BIR3; Reaction Biology; APT-11-370; purchased Reaction Biology APT-11-370
Text: as §1, §2

XIAP-BIR3 = biological target: T3, XIAP-BIR3 (Homo sapiens, UniProt P98170); assay: XIAP-BIR3 fluorescence polarization binding assay
T3 construct: purchased Reaction Biology APT-11-374
Text: as §1, §2

T2 sequence (Q13490 253-363 limits assumed): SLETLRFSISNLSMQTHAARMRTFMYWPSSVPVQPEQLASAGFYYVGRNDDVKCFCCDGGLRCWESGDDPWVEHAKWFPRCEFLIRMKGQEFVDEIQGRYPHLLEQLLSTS
T3 sequence (P98170 241-356 limits assumed): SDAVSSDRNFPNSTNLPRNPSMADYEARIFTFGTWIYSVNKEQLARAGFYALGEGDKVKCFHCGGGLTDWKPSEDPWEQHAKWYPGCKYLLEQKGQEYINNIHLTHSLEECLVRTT
T1 sequence (Q13489 238-349 limits assumed): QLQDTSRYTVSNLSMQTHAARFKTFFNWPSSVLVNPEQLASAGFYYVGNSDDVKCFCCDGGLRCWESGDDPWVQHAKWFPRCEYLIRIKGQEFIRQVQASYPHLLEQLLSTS

Row | IC50 (cIAP2-BIR3) | IC50 (cIAP1-BIR3) | IC50 (XIAP-BIR3) | Structure (SMILES)
1 | 0.1 to 10 nM | 0.1 to 10 nM | 10 to 100 nM | CC[C@H](NC(=O)[C@H](C)NC)C(=O)N1C[C@@H](OCCCN2CCN(CCCO[C@H]3C[C@@H](C(=O)N[C@@H]4CCCc5ccccc54)N(C(=O)[C@H](CC)NC(=O)[C@H](C)NC)C3)CC2)C[C@H]1C(=O)N[C@@H]1CCCc2ccccc21 [Compound II-B, (2S,4S)-1-[(2S)-2-[(2S)-2-(Methylamino)propanamido]butanoyl]-4-{3-[4-(3-{[(3S,5S)-1-[(2S)-2-[(2S)-2-(methylamino)propanamido]butanoyl]-5-{[(1R)-1,2,3,4-tetrahydronaphthalen-1-yl]carbamoyl}pyrrolidin-3-yl]oxy}propyl)piperazin-1-yl]propoxy}-N-[(1R)-1,2,3,4-tetrahydronaphthalen-1-yl]pyrrolidine-2-carboxamide]
2 | 10 to 100 nM | 0.1 to 10 nM | 10 to 100 nM | CN[C@@H](C)C(=O)N[C@H](C(=O)N1CCC[C@H]1C(=O)N[C@@H]1CCCc2c1cccc2N1CCN(c2cccc3c2CCC[C@H]3NC(=O)[C@@H]2CCCN2C(=O)[C@@H](NC(=O)[C@H](C)NC)C2CCCCC2)CC1)C1CCCCC1 [Compound I, (2S)-1-[(2S)-2-Cyclohexyl-2-[(2S)-2-(methylamino)propanamido]acetyl]-N-[(1R)-5-[4-[(5R)-5-[(2S)-1-[(2S)-2-cyclohexyl-2-[(2S)-2-(methylamino)propanamido]acetyl]pyrrolidine-2-amido]-5,6,7,8-tetrahydronaphthalen-1-yl]piperazin-1-yl]-1,2,3,4-tetrahydronaphthalen-1-yl]pyrrolidine-2-carboxamide]
3 | 10 to 100 nM | 0.1 to 10 nM | 10 to 100 nM | CN[C@@H](C)C(=O)N[C@H](C(=O)N1C[C@@H](OCCC(=O)N2CCN(C(=O)CCO[C@H]3C[C@@H](C(=O)N[C@@H]4CCCc5ccccc54)N(C(=O)[C@@H](NC(=O)[C@H](C)NC)C(C)C)C3)CC2)C[C@H]1C(=O)N[C@@H]1CCCc2ccccc21)C(C)C [Compound IV-D, (2S, 4S)-1-[(2S)-3-Methyl-2-[(2S)-2-(methylamino)propanamido]butanoyl]-4-[3-[4-(3-[[(3S,5S)-1-[(2S)-3-methyl-2-[(2S)-2-(methylamino)propanamido]butanoyl]-5-[[(1R)-1,2,3,4-tetrahydronaphthalen-1-yl]carbamoyl]pyrrolidin-3-yl]oxy]propanoyl)piperazin-1-yl]-3-oxopropoxy]-N-[(1R)-1,2,3,4-tetrahydronaphthalen-1-yl]pyrrolidine-2-carboxamide]
4 | 0.1 to 10 nM | 0.1 to 10 nM | 10 to 100 nM | CN[C@@H](C)C(=O)N[C@H](C(=O)N1C[C@@H](OCCOCCO[C@H]2C[C@@H](C(=O)N[C@@H]3CCCc4ccccc43)N(C(=O)[C@@H](NC(=O)[C@H](C)NC)C3CCCCC3)C2)C[C@H]1C(=O)N[C@@H]1CCCc2ccccc21)C1CCCCC1 [Compound V, (2S,4S)-1-[(2S)-2-Cyclohexyl-2-[(2S)-2-(methylamino)propanamido]acetyl]-4-[2-(2-[[(3S,5S)-1-[(2S)-2-cyclohexyl-2-[(2S)-2-(methylamino)propanamido]acetyl]-5-[[(1R)-1,2,3,4-tetrahydronaphthalen-1-yl]carbamoyl]pyrrolidin-3-yl]oxy]ethoxy)ethoxy]-N-[(1R)-1,2,3,4-tetrahydronaphthalen-1-yl] pyrrolidine-2-carboxamide]
5 | 10 to 100 nM | 0.1 to 10 nM | 100 to 1000 nM | CC[C@H](NC(=O)[C@H](C)NC)C(=O)N1C[C@@H](OCCC(=O)N2CCN(C(=O)CCO[C@H]3C[C@@H](C(=O)N[C@@H]4CCCc5ccccc54)N(C(=O)[C@H](CC)NC(=O)[C@H](C)NC)C3)CC2)C[C@H]1C(=O)N[C@@H]1CCCc2ccccc21 [Compound IV-B, (2S, 4S)-1-[(2S)-2-[(2S)-2-(Methylamino)propanamido]butanoyl]-4-[3-[4-(3-[[(3S,5S)-1-[(2S)-2-[(2S)-2-(methylamino)propanamido]butanoyl]-5-[[(1R)-1,2,3,4-tetrahydronaphthalen-1-yl]carbamoyl]pyrrolidin-3-yl]oxy]propanoyl)piperazin-1-yl]-3-oxopropoxy]-N-[(1R)-1,2,3,4-tetrahydronaphthalen-1-yl]pyrrolidine-2-carboxamide]
6 | 10 to 100 nM | 0.1 to 10 nM | 10 to 100 nM | CN[C@@H](C)C(=O)N[C@H](C(=O)N1C[C@@H](OCCCN2CCN(CCCO[C@H]3C[C@@H](C(=O)N[C@@H]4CCCc5ccccc54)N(C(=O)[C@@H](NC(=O)[C@H](C)NC)C4CCCCC4)C3)CC2)C[C@H]1C(=O)N[C@@H]1CCCc2ccccc21)C1CCCCC1 [Compound II, (2S,4S)-1-[(2S)-2-Cyclohexyl-2-[(2S)-2-(methylamino)propanamido]acetyl]-4-[3-[4-(3-[[(3S,5S)-1-[(2S)-2-cyclohexyl-2-[(2S)-2-(methylamino)propanamido]acetyl]-5-[[(1R)-1,2,3,4-tetrahydronaphthalen-1-yl]carbamoyl]pyrrolidin-3-yl]oxy]propyl)piperazin-1-yl]propoxy]-N-[(1R)-1,2,3,4-tetrahydronaphthalen-1-yl]pyrrolidine-2-carboxamide]
7 | 10 to 100 nM | 0.1 to 10 nM | 10 to 100 nM | CN[C@@H](C)C(=O)N[C@H](C(=O)N1C[C@@H](OCCC(=O)N2CCN(C(=O)CCO[C@H]3C[C@@H](C(=O)N[C@@H]4CCCc5ccccc54)N(C(=O)[C@@H](NC(=O)[C@H](C)NC)C4CCC4)C3)CC2)C[C@H]1C(=O)N[C@@H]1CCCc2ccccc21)C1CCC1 [Compound IV-G, (2S,4S)-1-[(2S)-2-Cyclobutyl-2-[(2S)-2-(methylamino)propanamido]acetyl]-4-[3-[4-(3-[[(3S,5S)-1-[(2S)-2-cyclobutyl-2-[(2S)-2-(methylamino)propanamido]acetyl]-5-[[(1R)-1,2,3,4-tetrahydronaphthalen-1-yl]carbamoyl]pyrrolidin-3-yl]oxy]propanoyl)piperazin-1-yl]-3-oxopropoxy]-N-[(1R)-1,2,3,4-tetrahydronaphthalen-1-yl]pyrrolidine-2-carboxamide]
8 | 10 to 100 nM | 0.1 to 10 nM | 100 to 1000 nM | CN[C@@H](C)C(=O)N[C@H](C(=O)N1C[C@@H](OCCCN2CCN(CCCO[C@H]3C[C@@H](C(=O)N[C@@H]4CCCc5ccccc54)N(C(=O)[C@@H](NC(=O)[C@H](C)NC)C4CC4)C3)CC2)C[C@H]1C(=O)N[C@@H]1CCCc2ccccc21)C1CC1 [Compound II-F, (2S,4S)-1-[(2S)-2-Cyclopropyl-2-[(2S)-2-(methylamino)propanamido]acetyl]-4-[3-[4-(3-[[(3S,5S)-1-[(2S)-2-cyclopropyl-2-[(2S)-2-(methylamino)propanamido]acetyl]-5-[[(1R)-1,2,3,4-tetrahydronaphthalen-1-yl]carbamoyl]pyrrolidin-3-yl]oxy]propyl)piperazin-1-yl]propoxy]-N-[(1R)-1,2,3,4-tetrahydronaphthalen-1-yl]pyrrolidine-2-carboxamide]
9 | 0.1 to 10 nM | 0.1 to 10 nM | 0.1 to 10 nM | CC[C@H](C)[C@H](NC(=O)[C@H](C)NC)C(=O)N1C[C@@H](OCCCN2CCN(CCCO[C@H]3C[C@@H](C(=O)N[C@@H]4CCCc5ccccc54)N(C(=O)[C@@H](NC(=O)[C@H](C)NC)[C@@H](C)CC)C3)CC2)C[C@H]1C(=O)N[C@@H]1CCCc2ccccc21 [Compound II-G, (2S,4S)-1-[(2S)-3-Methyl-2-[(2S)-2-(methylamino)propanamido]pentanoyl]-4-{3-[4-(3-{[(3S,5S)-1-[(2S)-3-methyl-2-[(2S)-2-(methylamino)propanamido]pentanoyl]-5-{[(1R)-1,2,3,4-tetrahydronaphthalen-1-yl]carbamoyl}pyrrolidin-3-yl]oxy}propyl)piperazin-1-yl]propoxy}-N-[(1R)-1,2,3,4-tetrahydronaphthalen-1-yl]pyrrolidine-2-carboxamide]
